{"source": "patent US20140371188A1", "about": "“COMPOSITIONS AND METHODS FOR INHIBITING MUSCLE ATROPHY AND INDUCING MUSCLE HYPERTROPHY” (UNIVERSITY OF IOWA RESEARCH FOUNDATION, priority 2011, published 2014)", "key": {"[1]": {"tested_on": "Gadd45a mRNA", "experiment": "Ursolic acid i.p., Gadd45a mRNA by qPCR in immobilized TA muscle", "type": "in vivo, C57BL/6 mice", "conditions": "ursolic acid 200 mg/kg i.p. twice a day from day 0; TA immobilized day 2; harvest day 5; vs vehicle (corn oil)", "procedure": "(§1) (A-E) Beginning on day 0, 6-8 wk old male C57BL/6 mice were given i.p. injections of ursolic acid (200 mg/kg) or an equal volume of vehicle (corn oil) twice a day. On day 2, the left tibialis anterior (TA) muscle of each mouse was immobilized. During immobilization, vehicle or ursolic acid continued to be administered via i.p. injection twice daily, and the right TA remained mobile and served as an intrasubject control. (A) On day 5, mice were euthanized and bilateral TA muscles were harvested. mRNA levels were determined with qPCR. In each mouse, mRNA levels from the immobile TA were normalized to values from the mobile TA, which were set at one. Data are means±SEM from ≧6 mice per condition. * P<0.05. (B-E) On day 8, bilateral TA muscles were harvested and weighed. (B) Effect of ursolic acid on skeletal muscle weight. In each mouse, the left (immobile) TA weight was normalized to the right (mobile) TA weight. Data are means±SEM from 10 mice per condition; ***P<0.001 by unpaired t-test. (C-E) Effect of ursolic acid on skeletal muscle fiber diameter. […]\n(§2) Exon Arrays and Quantitative Real-Time RT-PCR (qPCR) in Muscle and Myotubes—Extraction of skeletal muscle RNA and RNA hybridizations to Mouse Exon 1.0 ST arrays (Affymetrix) were performed as described previously (Ebert, S. M., et al. (2010) Mol. Endocrinol. 24, 790-799). […]"}, "[2]": {"tested_on": "Cdkn1a mRNA", "experiment": "Ursolic acid i.p., Cdkn1a mRNA by qPCR in immobilized TA muscle", "type": "in vivo, C57BL/6 mice", "conditions": "ursolic acid 200 mg/kg i.p. twice a day from day 0; TA immobilized day 2; harvest day 5; vs vehicle (corn oil)", "procedure": "as §1, §2"}, "[3]": {"tested_on": "immobilized tibialis anterior (TA) muscle", "experiment": "Ursolic acid i.p., immobilization-induced skeletal muscle atrophy (TA weight, fiber diameter)", "type": "in vivo, C57BL/6 mice", "conditions": "200 mg/kg i.p. twice a day from day 0; TA immobilized day 2; harvest day 8; vs vehicle (corn oil)", "procedure": "as §1, with “diameter. (C) Data are mean fiber diameters ±SEM from 10 immobilized TA muscles per condition; ***P<0.0001 by unpaired t-test. (D) Representative cross-sections of muscle fibers immunostained with anti-laminin antibody. (E) Data are fiber size distributions of >3000 fibers from 10 immobilized TA muscles per condition.” for “diameter.”"}, "[4]": {"tested_on": "tibialis anterior (TA) muscle", "experiment": "Ursolic acid i.p., recovery from immobilization-induced skeletal muscle atrophy after remobilization", "type": "in vivo, mouse", "conditions": "TA immobilized 7 days, then remobilized; 200 mg/kg i.p. twice daily started at remobilization; vs vehicle"}, "[5]": {"tested_on": "quadriceps muscle mRNAs (IGF-I, Ar, Ppargc1a, Tfam, Nos1, Vegfa, Hk2)", "experiment": "Diet containing 0.14% ursolic acid, qPCR of quadriceps muscle mRNAs", "type": "in vivo, C57BL/6 mice", "conditions": "diet containing 0.14% ursolic acid for 6 weeks, vs control diet", "procedure": "(§3) (A) C57BL/6 mice were fed diets lacking or containing 0.14% ursolic acid for 6 weeks before quadriceps muscles were harvested for qPCR analysis of the indicated mRNAs. mRNA levels in ursolic acid-treated mice were normalized to mRNA levels in control mice, which were set at one. Data are means±SEM from 10 mice per condition; *P<0.05, **P<0.01. (B) Cultured C2C12 myoblasts were serum-starved for 6 hours, and then incubated for 2 minutes in the absence or presence of ursolic acid (10 μM) and/or recombinant human growth hormone (100 ng/ml), as indicated. Total cellular protein extracts were subjected to immunoprecipitation with anti-GHR antibody, followed by immunoblot analysis with anti-phospho-tyrosine or anti-GHR antibodies to assess phospho-GHR and total GHR, respectively.\nExon Arrays and Quantitative Real-Time RT-PCR (qPCR) in Muscle and Myotubes—Extraction of skeletal muscle RNA and RNA hybridizations to Mouse Exon 1.0 ST arrays (Affymetrix) were performed as described previously (Ebert, S. M., et al. (2010) Mol. Endocrinol. 24, 790-799). Exon expression arrays examining the effects of Gadd45a overexpression, fasting and muscle denervation in TA muscles of C57BL/6 mice were described previously (Banduseela, V. C., et al. (2009) Physiol. Genomics 39, 141-159; Welle, S., et al. (2004) Exp. Gerontol. 39, 369-377) and can be found in the NCBI Gene Expression Omnibus under GEO Series accession numbers GSE39196, GSE20103 and GSE39195, respectively. Myotube RNA was extracted using TRIzol solution (Invitrogen), and then purified using the RNeasy kit and RNase Free DNase Set (Qiagen). qPCR analyses of mRNAs encoding mouse ATF4, Gadd45a, Bax, caspase-3 (Casp3), androgen receptor (Ar), thyroid hormone receptor-α (Thra), growth hormone receptor (Ghr), hexokinase 2 (Hk2), Suclg1, Coxl1, Tfam, Nos1, MuRF1 (Trim63), atrogin-1 (Fbxo32), cathepsin L (Ctsl), Bnip3, Cdkn1a, PGC-1α (Ppargc1a), GLUT4 (S1c2a4), LC3a (Mapl1c3a) and Vegfa were performed using TaqMan Gene Expression Assays (Applied Biosystems). For qPCR studies, first strand cDNA was synthesized in a 20 μl reaction that contained 2 μg of RNA, random hexamer primers and components of the High Capacity cDNA reverse transcription kit (Applied Biosystems). qPCR was carried out using a 7500 Fast Real-Time PCR System (Applied Biosystems). All qPCR reactions were performed in triplicate and the cycle threshold (Ct) values were averaged to give the final results. To analyze the data, the ΔCt method was used, with level of 36B4 mRNA serving as the invariant control.\nTo test this, C57BL/6 mice were fed diets lacking or containing 0.14% ursolic acid for 6 weeks before quadriceps muscles were harvested for qPCR analysis. […] These effects of ursolic acid are consistent with ursolic acid's capacity to decrease Gadd45a and Cdkn1a expression."}, "[6]": {"biological_target": "T1, growth hormone receptor (GHR) (Mus musculus, UniProt P16882)", "T1 construct": "endogenous in cells; host or cells: C2C12 mouse myoblasts (ATCC CRL-1772), serum-starved for 6 hours", "T1 sequence (P16882 25-650)": "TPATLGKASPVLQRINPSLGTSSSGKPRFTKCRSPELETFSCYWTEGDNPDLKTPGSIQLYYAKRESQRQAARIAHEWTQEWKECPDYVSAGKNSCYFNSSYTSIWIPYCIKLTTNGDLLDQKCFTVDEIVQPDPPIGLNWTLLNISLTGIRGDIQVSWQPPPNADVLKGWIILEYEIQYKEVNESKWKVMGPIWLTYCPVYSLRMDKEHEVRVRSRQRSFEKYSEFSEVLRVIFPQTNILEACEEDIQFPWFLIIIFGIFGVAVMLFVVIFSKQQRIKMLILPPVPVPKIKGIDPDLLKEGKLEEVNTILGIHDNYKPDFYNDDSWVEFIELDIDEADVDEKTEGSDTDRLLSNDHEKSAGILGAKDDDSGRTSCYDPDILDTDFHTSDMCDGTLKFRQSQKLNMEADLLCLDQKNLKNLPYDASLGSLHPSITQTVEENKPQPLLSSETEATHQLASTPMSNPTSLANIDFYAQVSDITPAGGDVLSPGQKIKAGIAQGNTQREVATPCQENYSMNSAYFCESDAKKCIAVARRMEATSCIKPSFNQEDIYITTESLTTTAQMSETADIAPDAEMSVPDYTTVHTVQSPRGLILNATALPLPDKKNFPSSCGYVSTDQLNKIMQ", "experiment": "GHR phosphorylation in serum-starved C2C12 myoblasts (anti-GHR immunoprecipitation, phospho-tyrosine immunoblot)", "type": "cell-based", "conditions": "ursolic acid 10 μM, 2 minutes; C2C12 myoblasts serum-starved 6 hours; absence or presence of recombinant human growth hormone 100 ng/ml", "procedure": "as §3\nC2C12 Myotube Culture and Infection—Mouse C2C12 myoblasts were obtained from ATCC (CRL-1772), and maintained at 37° C. and 5% CO2 in Dulbecco's modified Eagle's medium (DMEM) (ATCC #30-2002) containing antibiotics (100 units/ml penicillin, 100 μg/ml streptomycin sulfate) and 10% (v/v) fetal bovine serum (FBS). Myoblasts were set up for experiments on day 0 in 6-well plates at a density of 2.5×10^5 cells/well. On day 2, differentiation was induced by replacing 10% FBS with 2% horse serum. On day 7, cells were rinsed once with PBS, and then 1 ml DMEM containing adenovirus was added to each well. […]"}, "[7]": {"conditions": "general statement, no test described; cited from earlier work"}}}
{"substance": "3-β-hydroxy-urs-12-en-28-oic acid [ursolic acid]", "values": [{"measurement": "Gadd45a mRNA, immobile TA normalized to mobile TA", "setting": "[1]", "value": "prevented induction"}, {"measurement": "Cdkn1a mRNA, immobile TA normalized to mobile TA", "setting": "[2]", "value": "prevented induction"}, {"measurement": "TA muscle weight, left (immobile) normalized to right (mobile)", "setting": "[3]", "value": "reduced the loss of muscle mass"}, {"measurement": "size (diameter) of skeletal muscle fibers in immobilized TA muscles", "setting": "[3]", "value": "increased the size of skeletal muscle fibers"}, {"measurement": "recovery of skeletal muscle mass after remobilization", "setting": "[4]", "value": "significantly enhanced the recovery of skeletal muscle mass"}, {"measurement": "Hk2 mRNA in quadriceps", "setting": "[5]", "value": "increased"}, {"measurement": "IGF-I mRNA in quadriceps", "setting": "[5]", "value": "increased"}, {"measurement": "Nos1 mRNA in quadriceps", "setting": "[5]", "value": "increased"}, {"measurement": "PGC-1α (Ppargc1a) mRNA in quadriceps", "setting": "[5]", "value": "increased"}, {"measurement": "Tfam mRNA in quadriceps", "setting": "[5]", "value": "increased"}, {"measurement": "Vegfa mRNA in quadriceps", "setting": "[5]", "value": "increased"}, {"measurement": "androgen receptor (Ar) mRNA in quadriceps", "setting": "[5]", "value": "increased"}, {"measurement": "GHR phosphorylation (phospho-GHR vs total GHR)", "setting": "[6]", "value": "increased GHR phosphorylation"}, {"measurement": "water solubility", "setting": "[7]", "value": "highly water-insoluble"}]}
